What is called EC50 is the concentration giving half of the maximal effect.

This assay addresses T1, GABAA1 (α1β2γ2) receptor (Homo sapiens, UniProt P14867+P47870).
T1 construct: expressed in transfected cells
The assay can be described thus: Patch-clamp electrophysiology on recombinant GABAA1 receptor in HEK293 cells, with 3 μM GABA. Type of assay: cell-based. Conditions: for Emax at 0.1 µM / Emax at 1 µM / Emax: HEK293; for Emax at 0.1 µM: 0.1 μM compound together with 3 μmol GABA; for Emax at 0.1 µM / Emax at 1 µM: read-out: potency: ratio of the peak current on the GABAA1 receptor to the peak current in 100 μmol GABA; for Emax at 1 µM: 1 μM compound together with 3 μmol GABA; for Emax / EC50: together with 3 μmol GABA; for Emax: relative to peak current in 100 μmol GABA. On the procedure: The present invention applies the two subunits of the recombinant GABAA receptor: α1β2γ2 and α4β3δ to evaluate the potency of the exemplary compounds in vitro by patch-clamp electrophysiology.
Extracellular fluid: 140 mM NaCl, 5 mM CsCl, 2 mM CaCl2·2H2O, 1 mM MgCl2·6H2O, 5 mM HEPES, 10 mM D-Glucose, pH=7.4 (NaOH).
Intracellular fluid: 130 mM CsCl, 0.1 mM CaCl2·H2O, 2 mM MgCl2·6H2O, 1.1 mM EGTA, 5 mM Na2-ATP, 10 mM HEPES, pH=7.2 (CsOH).
The HEK293 cells line stably expressing GABAA (α1β2γ2) receptors was cultured in Dulbecco's Modified Eagle Medium (DMEM) supplemented with 10% fetal bovine serum, 800 μg/mL G418, 200 μg/mL Hygromycin B and 100 μg/mL Zeocin. Cells were grown in a humidified incubator at 37° C. with 5% carbon dioxide.
Before manual patch clamp test, the cells were detached using 0.25%-Trypsin-EDTA solution. Then 8×10^3 cells were plated onto coverslips, and cultured in a 24-well plate (final medium volume: 500 μL) and tested after 18 hours by patch clamp.
Glass pipette (BF 150-86-10, Sutter Instruments) was pulled using a micropipette puller (P97, Sutter Instruments). The glass pipette was manipulated using a micro-manipulator (MP285, Sutter Instruments) under the microscope (IX71, Olympus). After touching the cell, a slight suction was applied to achieve high seal resistance (GQ). Fast capacitance (in pF) compensation was made after achieving high seal, and the membrane was broken. Cell capacitance (in pF) compensation was made from whole-cell capacitance compensation after the whole cell mode was achieved. No leak subtraction was made.
The test and control solutions flowed into a recording chamber mounted on the stage of an inverted microscope via a gravity-fed solution delivery system. During the experiment, solutions were withdrawn from the recording chamber by vacuum aspiration. Each concentration was tested at multiple times. All tests were performed at room temperature.
Whole cell model recorded GABAA1 receptors current experimental protocol was indicated as follows: When sealing, cell was at a holding potential of −70 mV, with gap-free mode to record the peak current. The cell would be applied with 3 μM GABA to active current. After the test articles application for 30 s, each concentration of test articles was applied with 3 μM GABA followed by 2 minutes washout using extracellular solution. Finally, 100 μM GABA was used as a positive control. The data were collected by EPC-10 amplifier and stored in PatchMaster (HEKA) software.
The following criteria are used to determine whether the data is acceptable: • (1) Electrode resistance <5MΩ • (2) Seal resistance >1GΩ • (3) The start of access resistance <15 MΩ • (4) The end of access resistance <15 MΩ • (5) No obvious spontaneous current decay. • (6) No obvious current leakage when the membrane potential is-70 mv. 56.6 Data Analysis
In the detection of GABAA1, the currents of 3 μM GABA and different concentrations of test compounds were respectively normalized to the current of 100 μM GABA
[formula] and then the activation rate corresponding to each concentration was calculated.
[formula] and then the activation rate corresponding to each concentration was calculated. Means, Standard Deviation and Standard Error were calculated for each test group. EC50 value was calculated using nonlinear regression: Y=Bottom+(Top−Bottom)/(1+10^((Log EC50−X)×HillSlope))
To fit data to the concentration-response, EC50 was the concentration giving a half-maximum effect and Hillslope was the Hill coefficient. Curve-fitting and EC50 calculations were performed using Graphpad5.0 software.
Emax is defined as the ratio of the peak current generated on the GABAA1 receptor to the peak current generated only in 100 μmol of GABA and the ratio is multiplied by 100%. The peak current generated on the GABAA1 receptor is that the exemplary compounds act on the GABAA1 receptor together with 3 μmol GABA.
For orientation: In patch-clamp work, channel activity is measured electrically.

T1 sequence (P14867 28-456): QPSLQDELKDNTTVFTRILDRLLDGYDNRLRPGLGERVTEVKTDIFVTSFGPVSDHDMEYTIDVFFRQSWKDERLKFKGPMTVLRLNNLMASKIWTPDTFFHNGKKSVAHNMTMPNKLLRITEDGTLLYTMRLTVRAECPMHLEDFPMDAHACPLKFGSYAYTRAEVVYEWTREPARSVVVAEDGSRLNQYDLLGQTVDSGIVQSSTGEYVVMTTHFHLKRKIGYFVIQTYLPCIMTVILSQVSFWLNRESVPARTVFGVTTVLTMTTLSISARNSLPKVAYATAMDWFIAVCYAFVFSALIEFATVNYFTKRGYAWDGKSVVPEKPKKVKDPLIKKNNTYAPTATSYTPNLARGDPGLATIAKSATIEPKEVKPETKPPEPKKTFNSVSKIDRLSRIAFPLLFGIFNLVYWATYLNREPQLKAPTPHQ
T1 sequence (P47870 26-512): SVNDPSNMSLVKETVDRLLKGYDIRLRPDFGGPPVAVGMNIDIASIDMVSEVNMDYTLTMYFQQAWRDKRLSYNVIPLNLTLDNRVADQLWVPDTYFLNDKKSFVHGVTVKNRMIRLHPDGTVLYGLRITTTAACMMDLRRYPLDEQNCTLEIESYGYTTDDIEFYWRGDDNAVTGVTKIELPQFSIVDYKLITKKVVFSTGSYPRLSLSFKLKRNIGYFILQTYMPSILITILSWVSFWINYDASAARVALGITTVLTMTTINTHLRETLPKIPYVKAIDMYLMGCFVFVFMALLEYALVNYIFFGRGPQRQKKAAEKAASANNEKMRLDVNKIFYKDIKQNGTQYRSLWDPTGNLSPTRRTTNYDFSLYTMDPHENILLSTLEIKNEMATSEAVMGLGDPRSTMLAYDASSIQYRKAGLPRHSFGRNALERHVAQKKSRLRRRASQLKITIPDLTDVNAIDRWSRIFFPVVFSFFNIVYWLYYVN
T1 sequence (P18507 40-475 partner): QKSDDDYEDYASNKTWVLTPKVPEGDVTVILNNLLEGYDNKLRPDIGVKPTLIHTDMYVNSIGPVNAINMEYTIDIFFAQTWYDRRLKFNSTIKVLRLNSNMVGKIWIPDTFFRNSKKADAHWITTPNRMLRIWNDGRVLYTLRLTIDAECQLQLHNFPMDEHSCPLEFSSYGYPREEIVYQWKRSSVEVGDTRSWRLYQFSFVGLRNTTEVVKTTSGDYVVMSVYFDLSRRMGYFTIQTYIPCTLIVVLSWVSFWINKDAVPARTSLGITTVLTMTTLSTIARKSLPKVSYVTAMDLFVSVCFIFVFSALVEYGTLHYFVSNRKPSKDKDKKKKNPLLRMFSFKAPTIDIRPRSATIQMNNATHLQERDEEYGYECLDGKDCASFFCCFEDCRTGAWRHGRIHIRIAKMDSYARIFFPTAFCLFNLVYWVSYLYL

As to `C[C@@]1(O)CC[C@@]2(C)[C@@H](CC[C@@H]3[C@@H]2CC[C@]2(C)[C@@H](C(=O)COc4nc5ccccc5o4)CCC[C@@H]32)C1` [KH028], the Emax at 0.1 µM was in the range of 0 to 20% and the Emax at 1 µM was 0 to 20%.

With `C[C@]12CC[C@@H](O)C[C@@H]1CC[C@@H]1[C@@H]2CC[C@]2(C)[C@@H](C(=O)Cn3ccc4ccccc43)CCC[C@@H]12` [KH009], the Emax at 0.1 µM is 20 to 40% and the Emax at 1 µM is above 80%.

On to `Cc1cccc2c(OCC(=O)[C@H]3CCC[C@H]4[C@@H]5CC[C@H]6C[C@](C)(O)CC[C@]6(C)[C@H]5CC[C@]34C)ncnc12` [KH029], for which the Emax at 0.1 µM was in the range of 0 to 20% and the Emax at 1 µM was 0 to 20%.

`Cn1cnnc1SCC(=O)[C@H]1CCC[C@H]2[C@@H]3CC[C@H]4C[C@](C)(O)CC[C@]4(C)[C@H]3CC[C@]12C` [KH037]: the Emax at 0.1 µM lay in the range of 0 to 20% and the Emax at 1 µM was 0 to 20%.

Regarding `C[C@@]1(O)CC[C@@]2(C)[C@@H](CC[C@@H]3[C@@H]2CC[C@]2(C)[C@@H](C(=O)CO)CCC[C@@H]32)C1` [KH042], the Emax at 0.1 µM was in the range of 0 to 20% and the Emax at 1 µM was 40 to 60%.

Turning to `C[C@@]1(O)CC[C@H]2[C@H](CC[C@@H]3[C@@H]2CC[C@]2(C)[C@@H](C(=O)COc4ncnc5cnc(F)cc45)CCC[C@@H]32)C1` [KH048], the Emax at 0.1 µM was in the range of 0 to 20% and the Emax at 1 µM fell in the range of 0 to 20%.

Regarding `Cn1nnnc1SCC(=O)[C@H]1CCC[C@H]2[C@@H]3CC[C@@H]4C[C@](C)(O)CC[C@@H]4[C@H]3CC[C@]12C` [KH047], the Emax at 0.1 µM lay in the range of 0 to 20% and the Emax at 1 µM is 0 to 20%.

`C[C@]12CC[C@@H](O)C[C@@H]1CC[C@@H]1[C@@H]2CC[C@]2(C)[C@@H](C(=O)Cn3ncc4ccccc43)CCC[C@@H]12` [KH011]: the Emax at 0.1 µM was in the range of 20 to 40% and the Emax at 1 µM lay within 60 to 80%.

On to `C[C@]12CC[C@@H](O)C[C@@H]1CC[C@@H]1[C@@H]2CC[C@]2(C)[C@@H](C(=O)Cn3cnnn3)CCC[C@@H]12` [KH005], for which the Emax at 0.1 µM was 20 to 40% and the Emax at 1 µM was in the range of 60 to 80%.

Consider `C[C@@]1(O)CC[C@@]2(C)[C@@H](CC[C@@H]3[C@@H]2CC[C@]2(C)[C@@H](C(=O)Cn4ccc(C#N)n4)CCC[C@@H]32)C1` [KH024], for which the Emax at 0.1 µM fell in the range of 0 to 20% and the Emax at 1 µM fell in the range of 40 to 60%.

As for `C[C@]12CC[C@@H](O)C[C@@H]1CC[C@@H]1[C@@H]2CC[C@]2(C)[C@@H](C(=O)Cn3cnc4cncnc43)CCC[C@@H]12` [KH012], the Emax at 0.1 µM is 0 to 20% and the Emax at 1 µM is 60 to 80%.

With `C[C@]12CC[C@@H](O)C[C@@H]1CC[C@@H]1[C@@H]2CC[C@]2(C)[C@@H](C(=O)Cn3cc(C(F)(F)F)cn3)CCC[C@@H]12` [KH010], the Emax at 0.1 µM fell in the range of 0 to 20% and the Emax at 1 µM is 20 to 40%.

Consider `C[C@]12CC[C@@H](O)C[C@@H]1CC[C@@H]1[C@@H]2CC[C@]2(C)[C@@H](C(=O)Cn3ccnc3)CCC[C@@H]12` [KH007], for which the Emax at 0.1 µM lay in the range of 0 to 20% and the Emax at 1 µM lay in the range of 40 to 60%.

`C[C@]12CC[C@@H](O)C[C@@H]1CC[C@@H]1[C@@H]2CC[C@]2(C)[C@@H](C(=O)Cn3cnc4ncnc(Cl)c43)CCC[C@@H]12` [KH015]: the Emax at 0.1 µM fell in the range of 0 to 20% and the Emax at 1 µM lay in the range of 0 to 20%.

Take `C[C@]12CC[C@@H](O)C[C@@H]1CC[C@@H]1[C@@H]2CC[C@]2(C)[C@@H](C(=O)Cn3ccnn3)CCC[C@@H]12` [KH003]: the Emax at 0.1 µM lay within 20 to 40%, the Emax at 1 µM lay in the range of 60 to 80%, the Emax is 72.8% and the EC50 stood at 478 nM.

`C[C@]12CC[C@@H](O)C[C@@H]1CC[C@@H]1[C@@H]2CC[C@]2(C)[C@@H](C(=O)Cn3cc(Cl)cn3)CCC[C@@H]12` [KH013]: the Emax at 0.1 µM lay in the range of 0 to 20% and the Emax at 1 µM was 0 to 20%.

On to `C[C@]12CC[C@@H](O)C[C@@H]1CC[C@@H]1[C@@H]2CC[C@]2(C)[C@@H](C(=O)CO)CCC[C@@H]12` [KH014], for which the Emax at 0.1 µM was in the range of 0 to 20% and the Emax at 1 µM lay within 40 to 60%.

Consider `C[C@]12CC[C@@H](O)C[C@@H]1CC[C@@H]1[C@@H]2CC[C@]2(C)[C@@H](C(=O)Cn3cccn3)CCC[C@@H]12` [KH006], for which the Emax at 0.1 µM lay in the range of 20 to 40% and the Emax at 1 µM was 40 to 60%.

For `C[C@@]1(O)CC[C@@]2(C)[C@@H](CC[C@@H]3[C@@H]2CC[C@]2(C)[C@@H](C(=O)Cn4cnnn4)CCC[C@@H]32)C1` [KH023], the Emax at 0.1 µM lay in the range of 0 to 20% and the Emax at 1 µM lay in the range of 0 to 20%.

In the case of `Cc1nnnn1CC(=O)[C@H]1CCC[C@H]2[C@@H]3CC[C@H]4C[C@H](O)CC[C@]4(C)[C@H]3CC[C@]12C` [KH019], the Emax at 0.1 µM was 0 to 20% and the Emax at 1 µM was in the range of 0 to 20%.

`COc1nnc(OCC(=O)[C@H]2CCC[C@H]3[C@@H]4CC[C@H]5C[C@](C)(O)CC[C@]5(C)[C@H]4CC[C@]23C)n1C` [KH030]: the Emax at 0.1 µM fell in the range of 0 to 20% and the Emax at 1 µM lay within 0 to 20%.

On to `C[C@@]1(O)CC[C@@]2(C)[C@@H](CC[C@@H]3[C@@H]2CC[C@]2(C)[C@@H](C(=O)COc4ccc5ccccc5n4)CCC[C@@H]32)C1` [KH033], for which the Emax at 0.1 µM lay within 0 to 20% and the Emax at 1 µM is 20 to 40%.

Turning to `Cc1nnn(CC(=O)[C@H]2CCC[C@H]3[C@@H]4CC[C@H]5C[C@H](O)CC[C@]5(C)[C@H]4CC[C@]23C)n1` [KH018], the Emax at 0.1 µM is 0 to 20% and the Emax at 1 µM lay in the range of 20 to 40%.

Take `C[C@@]1(O)CC[C@@]2(C)[C@@H](CC[C@@H]3[C@@H]2CC[C@]2(C)[C@@H](C(=O)Cn4cc(C#N)cn4)CCC[C@@H]32)C1` [KH040]: the Emax at 0.1 µM was 0 to 20% and the Emax at 1 µM was 20 to 40%.

`C[C@@]1(O)CC[C@@]2(C)[C@@H](CC[C@@H]3[C@@H]2CC[C@]2(C)[C@@H](C(=O)COc4ccon4)CCC[C@@H]32)C1` [KH038]: the Emax at 0.1 µM was in the range of 0 to 20% and the Emax at 1 µM fell in the range of 40 to 60%.

As to `C[C@]12CC[C@@H](O)C[C@@H]1CC[C@@H]1[C@@H]2CC[C@]2(C)[C@@H](C(=O)CSc3cccs3)CCC[C@@H]12` [KH016], the Emax at 0.1 µM was in the range of 0 to 20% and the Emax at 1 µM lay within 40 to 60%.

As to `C[C@]12CC[C@@H](O)C[C@@H]1CC[C@@H]1[C@@H]2CC[C@]2(C)[C@@H](C(=O)Cn3cc(C#N)cn3)CCC[C@@H]12` [KH002], the Emax at 0.1 µM was in the range of 0 to 20%, the Emax at 1 µM was in the range of 60 to 80%, the Emax was found to be 74.6% and the EC50 was 464 nM.

Turning to `C[C@@]1(O)CC[C@@]2(C)[C@@H](CC[C@@H]3[C@@H]2CC[C@]2(C)[C@@H](C(=O)Cn4nccn4)CCC[C@@H]32)C1` [KH043], the Emax at 0.1 µM was in the range of 0 to 20% and the Emax at 1 µM lay within 20 to 40%.

`C[C@@]1(O)CC[C@H]2[C@H](CC[C@@H]3[C@@H]2CC[C@]2(C)[C@@H](C(=O)Cn4ncnn4)CCC[C@@H]32)C1` [KH052]: the Emax at 0.1 µM was 0 to 20% and the Emax at 1 µM lay within 0 to 20%.

For the compound `C[C@@]1(O)CC[C@@]2(C)[C@@H](CC[C@@H]3[C@@H]2CC[C@]2(C)[C@@H](C(=O)COc4ncnc5c(F)cccc45)CCC[C@@H]32)C1` [KH035], the Emax at 0.1 µM lay in the range of 0 to 20% and the Emax at 1 µM lay within 20 to 40%.

Take `C[C@]12CC[C@@H](O)C[C@@H]1CC[C@@H]1[C@@H]2CC[C@]2(C)[C@@H](C(=O)Cn3ccc(C#N)n3)CCC[C@@H]12` [KH008]: the Emax at 0.1 µM is 20 to 40% and the Emax at 1 µM was above 80%.

The values are drawn from US12415830B2, “Steroid compound, and use thereof and preparation method therefor” (Chengdu Kanghong Pharmaceutical Co Ltd, priority 2019, dated 2025).
